Results: ChEMBL document CHEMBL1201862, “PubChem BioAssay data set” (2004)
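Interpolation was linear, between the two tested concentrations surrounding the appropriate level; five concentrations were tested over 48 hours in 96-well plates. GI50: concentration for 50% inhibition of growth.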 The source made the active and inactive calls. No stated cut-off is given here; in the data, active = GI50 up to about 1.1 µM and inactive = higher.

How the values were obtained:
Experiment in all cases: NCI anticancer screen, dose series, 48 h
TK-10 = test system: TK-10
NCI-H226 = test system: NCI-H226
U-251 = test system: U-251
KM12 = test system: KM12
A549 = test system: A549
NCI-H522 = test system: NCI-H522
SK-MEL-28 = test system: SK-MEL-28
UACC-257 = test system: UACC-257
NCI/ADR-RES = test system: NCI/ADR-RES
EKVX = test system: EKVX
UACC-62 = test system: UACC-62
MDA-MB-231 = test system: MDA-MB-231
OVCAR-4 = test system: OVCAR-4
SF-295 = test system: SF-295
MDA-N = test system: MDA-N
HCC 2998 = test system: HCC 2998
HCT-116 = test system: HCT-116
HL-60 = test system: HL-60
SK-MEL-2 = test system: SK-MEL-2
ACHN = test system: ACHN

Measured: GI50

O=C1C=C(Nc2nc(O)cc(C(=O)O)n2)c2ccccc2C1=O
inactive: TK-10 > 100 µM | NCI-H226 > 100 µM | U-251 > 100 µM | KM12 > 100 µM | A549 > 100 µM | NCI-H522 > 100 µM | SK-MEL-28 > 100 µM | UACC-257 > 100 µM | NCI/ADR-RES > 100 µM | EKVX > 100 µM | UACC-62 > 100 µM | MDA-MB-231 > 100 µM | OVCAR-4 > 100 µM | SF-295 > 100 µM | MDA-N > 100 µM | HCC 2998 > 100 µM | HCT-116 > 100 µM | HL-60 > 100 µM | SK-MEL-2 > 100 µM | ACHN > 100 µM

Cc1ccc(-n2cnc(C(=N)C#N)c2N)cc1
inactive: TK-10 > 100 µM | NCI-H226 > 100 µM | U-251 > 100 µM | KM12 > 100 µM | A549 > 100 µM | NCI-H522 > 100 µM | SK-MEL-28 > 100 µM | UACC-257 > 100 µM | NCI/ADR-RES > 100 µM | EKVX > 100 µM | UACC-62 > 100 µM | MDA-MB-231 > 100 µM | OVCAR-4 > 100 µM | SF-295 > 100 µM | MDA-N > 100 µM | HCC 2998 > 100 µM | HCT-116 > 100 µM | HL-60 > 100 µM | SK-MEL-2 > 100 µM | ACHN > 100 µM

CCOC(=O)CN1CC(C2=C(O)CN(CC(=O)OCC)C2=O)=CC1=O
inactive: TK-10 > 100 µM | NCI-H226 > 100 µM | U-251 > 100 µM | KM12 > 100 µM | A549 > 100 µM | NCI-H522 > 100 µM | SK-MEL-28 > 100 µM | UACC-257 > 100 µM | NCI/ADR-RES > 100 µM | EKVX > 100 µM | UACC-62 > 100 µM | MDA-MB-231 > 100 µM | OVCAR-4 > 100 µM | SF-295 > 100 µM | MDA-N > 100 µM | HCC 2998 > 100 µM | HCT-116 > 100 µM | HL-60 > 100 µM | SK-MEL-2 > 100 µM | ACHN > 100 µM

Nc1nc(OCC2CCCCC2)c2nc[nH]c2n1
inactive: TK-10 7.35 µM | NCI-H226 9.59 µM | U-251 16.8 µM | KM12 15.7 µM | A549 15.5 µM | NCI-H522 9.1 µM | SK-MEL-28 26.2 µM | UACC-257 17.3 µM | NCI/ADR-RES 28.6 µM | EKVX 19.4 µM | UACC-62 12.6 µM | MDA-MB-231 25 µM | OVCAR-4 13.2 µM | SF-295 17.7 µM | MDA-N 13.1 µM | HCC 2998 17.5 µM | HCT-116 11.4 µM | HL-60 19.1 µM | SK-MEL-2 4.5 µM | ACHN 1.3 µM

C=C1C(=O)O[C@@H]2C[C@@]3(C)CCCC(=C)[C@@H]3C[C@H]12.C=C1C(=O)O[C@@H]2C[C@@]3(C)CCC[C@H](C)C3=C[C@H]12
inactive: TK-10 2.88 µM | NCI-H226 5.3 µM | U-251 3.63 µM | KM12 2.7 µM | A549 5.12 µM | NCI-H522 1.38 µM | SK-MEL-28 1.78 µM | UACC-257 1.65 µM | NCI/ADR-RES 1.96 µM | EKVX 4.78 µM | UACC-62 2.39 µM | MDA-MB-231 2.38 µM | OVCAR-4 2.7 µM | SF-295 11.5 µM | MDA-N 2.04 µM | HCC 2998 5.85 µM | HCT-116 1.41 µM | HL-60 1.99 µM | SK-MEL-2 2.09 µM | ACHN 2.55 µM

CCOC(=O)CCc1cccc2c1oc1c(CCNC(=O)OCC3c4ccccc4-c4ccccc43)cccc12
inactive: TK-10 40.4 µM | NCI-H226 86.7 µM | U-251 57.3 µM | KM12 > 100 µM | A549 > 100 µM | NCI-H522 37.9 µM | SK-MEL-28 > 100 µM | UACC-257 41.9 µM | NCI/ADR-RES 58.6 µM | EKVX > 100 µM | UACC-62 16.4 µM | MDA-MB-231 16.2 µM | OVCAR-4 > 100 µM | SF-295 19.6 µM | MDA-N > 100 µM | HCC 2998 > 100 µM | HCT-116 79.3 µM | HL-60 > 100 µM | SK-MEL-2 76.6 µM | ACHN 44.3 µM

O=C(NCCN1C(=O)CN=C(c2ccc(Cl)cc2)c2cc(Cl)ccc21)OCc1ccccc1
inactive: TK-10 16.7 µM | NCI-H226 15.6 µM | U-251 15.2 µM | KM12 15.3 µM | A549 10.6 µM | NCI-H522 15.5 µM | SK-MEL-28 33.7 µM | UACC-257 15.3 µM | NCI/ADR-RES 11.9 µM | EKVX 20.7 µM | UACC-62 14.8 µM | MDA-MB-231 14.8 µM | OVCAR-4 8.71 µM | SF-295 13.7 µM | MDA-N 16.5 µM | HCC 2998 14.3 µM | HCT-116 11.9 µM | HL-60 10.1 µM | SK-MEL-2 18.1 µM | ACHN 16.3 µM
